Calls of active or inactive are those of the source. No cut-off for these calls is given here.
Columns and labels:
Candida albicans [1] = assay: Antifungal activity against mixed infection of Candida albicans infected in mouse assessed as noninfected animals at 2% commercial cream formulation administered vaginally bid for 4 days measured 6 hrs post last dose relative to placebo; format: functional
Candida albicans [2] = assay: Antifungal activity against mixed infection of Candida albicans infected in mouse assessed as noninfected animals at 2% commercial cream formulation administered vaginally bid for 4 days measured on day 7 relative to placebo; format: functional
Candida albicans [3] = assay: Antifungal activity against mixed infection of Candida albicans infected in mouse assessed as noninfected animals at 2% formulation administered vaginally bid for 4 days measured 6 hrs post last dose relative to placebo; format: functional
Candida albicans [4] = assay: Antifungal activity against mixed infection of Candida albicans infected in mouse assessed as noninfected animals at 2% formulation administered vaginally bid for 4 days measured on day 7 relative to placebo; format: functional
Candida albicans [5] = assay: Antifungal activity against mixed infection of Candida albicans infected in mouse assessed as noninfected animals at 1% formulation administered vaginally bid for 4 days measured 6 hrs post last dose relative to placebo; format: functional
Candida albicans [6] = assay: Antifungal activity against mixed infection of Candida albicans infected in mouse assessed as noninfected animals at 1% formulation administered vaginally bid for 4 days measured on day 7 relative to placebo; format: functional
Candida albicans [7] = assay: Antifungal activity against mixed infection of Candida albicans infected in mouse assessed as noninfected animals at 0.5% formulation administered vaginally bid for 4 days measured 6 hrs post last dose relative to placebo; format: functional
Candida albicans [8] = assay: Antifungal activity against mixed infection of Candida albicans infected in mouse assessed as noninfected animals at 0.5% formulation administered vaginally bid for 4 days measured on day 7 relative to placebo; format: functional
Candida albicans [9] = assay: Antifungal activity against mixed infection of Candida albicans infected in mouse assessed as noninfected animals at 0.2% formulation administered vaginally bid for 4 days measured 6 hrs post last dose relative to placebo; format: functional
Candida albicans [10] = assay: Antifungal activity against mixed infection of Candida albicans infected in mouse assessed as noninfected animals at 0.2% formulation administered vaginally bid for 4 days measured on day 7 relative to placebo; format: functional
[11] = test system: Trichophyton mentagrophytes; assay: Antifungal activity against Trichophyton mentagrophytes infected in guinea pig assessed as noninfected animals at 0.5% formulation in steryl alcohol, cetyl alcohol, Span 60, Tween 60, propylene glycol, mineral oil, and water administered qd for 5 days measured on day 4; format: functional
[12] = test system: Trichophyton mentagrophytes; assay: Antifungal activity against Trichophyton mentagrophytes infected in guinea pig assessed as noninfected animals at 0.5% formulation in steryl alcohol, cetyl alcohol, Span 60, Tween 60, propylene glycol, mineral oil, and water administered qd for 5 days measured on day 7; format: functional
[13] = test system: Trichophyton mentagrophytes; assay: Antifungal activity against Trichophyton mentagrophytes infected in guinea pig assessed as noninfected animals at 0.5% formulation in steryl alcohol, cetyl alcohol, Span 60, Tween 60, propylene glycol, mineral oil, and water administered qd for 5 days measured on day 14; format: functional
[14] = test system: Trichophyton mentagrophytes; assay: Antifungal activity against Trichophyton mentagrophytes assessed as growth inhibition by agar dilution method; format: functional
Trichophyton rubrum = assay: Antifungal activity against Trichophyton rubrum assessed as growth inhibition by agar dilution method; format: functional
Trichophyton tonsurans = assay: Antifungal activity against Trichophyton tonsurans assessed as growth inhibition by agar dilution method; format: functional
[15] = Antifungal activity against Trichophyton concentricum assessed as growth inhibition by agar dilution method; format: functional
Nannizzia gypsea = assay: Antifungal activity against Microsporum gypseum assessed as growth inhibition by agar dilution method; format: functional
Microsporum canis = assay: Antifungal activity against Microsporum canis assessed as growth inhibition by agar dilution method; format: functional
Epidermophyton floccosum = assay: Antifungal activity against Epidermophyton floccosum assessed as growth inhibition by agar dilution method; format: functional
Candida albicans [16] = assay: Antifungal activity against Candida albicans ATCC 10231 assessed as growth inhibition by broth dilution method; format: functional
Candida albicans [17] = assay: Antifungal activity against Candida albicans ATCC 14053 assessed as growth inhibition by broth dilution method; format: functional
Cryptococcus neoformans = assay: Antifungal activity against Cryptococcus neoformans assessed as growth inhibition by broth dilution method; format: functional
Staphylococcus aureus [18] = assay: Antibacterial activity against Staphylococcus aureus No. 6538 P assessed as growth inhibition by broth microdilution method; format: functional
Staphylococcus aureus [19] = assay: Antibacterial activity against Staphylococcus aureus No. 14154 assessed as growth inhibition by broth microdilution method; format: functional
Enterococcus faecalis = assay: Antibacterial activity against Streptococcus faecalis No. 8043-2 assessed as growth inhibition by broth microdilution method; format: functional
Streptococcus pyogenes = assay: Antibacterial activity against Streptococcus pyogenes No. 8668 assessed as growth inhibition by broth microdilution method; format: functional
Candida albicans [20] = assay: Antifungal activity against Candida albicans infected in mouse assessed as noninfected animals at 2% formulation in modified PEG 400 solution administered vaginally bid for 4 days measured on day 7 relative to placebo; format: functional, organism-based
Candida albicans [21] = assay: Antifungal activity against Candida albicans infected in mouse assessed as noninfected animals at 4% formulation in neat PEG 400 solution administered vaginally bid for 4 days measured 6 hrs post last dose relative to placebo; format: functional
Candida albicans [22] = assay: Antifungal activity against Candida albicans infected in mouse assessed as noninfected animals at 4% formulation in neat PEG 400 solution administered vaginally bid for 4 days measured on day 7 relative to placebo; format: functional
Candida albicans [23] = assay: Antifungal activity against Candida albicans infected in mouse assessed as noninfected animals at 2% formulation in neat PEG 400 solution administered vaginally bid for 4 days measured 6 hrs post last dose relative to placebo; format: functional
Candida albicans [24] = assay: Antifungal activity against Candida albicans infected in mouse assessed as noninfected animals at 2% formulation in neat PEG 400 solution administered vaginally bid for 4 days measured on day 7 relative to placebo; format: functional
Candida albicans [25] = assay: Antifungal activity against Candida albicans infected in mouse assessed as noninfected animals at 1% formulation in neat PEG 400 solution administered vaginally bid for 4 days measured 6 hrs post last dose relative to placebo; format: functional
Candida albicans [26] = assay: Antifungal activity against Candida albicans infected in mouse assessed as noninfected animals at 1% formulation in neat PEG 400 solution administered vaginally bid for 4 days measured on day 7 relative to placebo; format: functional
Candida albicans [27] = assay: Antifungal activity against Candida albicans infected in mouse assessed as noninfected animals at 0.5% formulation in neat PEG 400 solution administered vaginally bid for 4 days measured 6 hrs post last dose relative to placebo; format: functional
Candida albicans [28] = assay: Antifungal activity against Candida albicans infected in mouse assessed as noninfected animals at 0.5% formulation in neat PEG 400 solution administered vaginally bid for 4 days measured on day 7 relative to placebo; format: functional
Candida albicans [29] = assay: Antifungal activity against Candida albicans infected in mouse assessed as noninfected animals at 100000 U/g administered vaginally bid for 4 days measured on day 7 relative to placebo; format: functional, organism-based
Candida albicans [30] = assay: Antifungal activity against Candida albicans infected in mouse assessed as noninfected animals at 100000 U/g administered vaginally bid for 4 days measured 6 hrs post last dose relative to placebo; format: functional, organism-based

Clc1ccc(COC(Cn2ccnc2)c2ccc(Cl)cc2Cl)c(Cl)c1 (stereo not drawn) [MICONAZOLE]
Activity (Candida albicans [1]): 33% | Activity (Candida albicans [2]): 25% | Activity (Candida albicans [3]): 10% | Activity (Candida albicans [4]): 15% | Activity (Candida albicans [5]): 20% | Activity (Candida albicans [6]): 25% | Activity (Candida albicans [7]): 20% | Activity (Candida albicans [8]): 11% | Activity (Candida albicans [9]): 15% | Activity (Candida albicans [10]): 20% | Activity [11]: 70% | Activity [12]: 80% | Activity [13]: 10% | GI [14]: 0.5 µg/mL | GI (Trichophyton rubrum): 0.5 µg/mL | GI (Trichophyton tonsurans): 0.5 µg/mL | GI [15]: 0.5 µg/mL | GI (Nannizzia gypsea): 0.05 µg/mL | GI (Microsporum canis): 0.5 µg/mL | GI (Epidermophyton floccosum): 5 µg/mL | GI (Candida albicans [16]): 30 µg/mL | GI (Candida albicans [17]): 30 µg/mL | GI (Cryptococcus neoformans): <=0.3 ug ml-1 | GI (Staphylococcus aureus [18]): 6.25 µg/mL | GI (Staphylococcus aureus [19]): 12.5 µg/mL | GI (Enterococcus faecalis): 3.12 µg/mL | GI (Streptococcus pyogenes): <=0.0008 ug ml-1 | Activity (Candida albicans [20]): inactive | Activity (Candida albicans [21]): 75% | Activity (Candida albicans [22]): 70% | Activity (Candida albicans [23]): 50% | Activity (Candida albicans [24]): 37% | Activity (Candida albicans [25]): 60% | Activity (Candida albicans [26]): 25% | Activity (Candida albicans [27]): 30% | Activity (Candida albicans [28]): 25%

NYSTATIN
Activity (Candida albicans [29]): 0% | Activity (Candida albicans [30]): 10%

From ChEMBL document CHEMBL3272133, “1-[4-(4-Chlorophenyl)-2-(2,6-dichlorophenylthio)-n-butyl]-1H-imidazole nitrate, a new potent antifungal agent” (J Med Chem, 1978)
